Measurements reported in a melting point compilation (Tetko et al.; mined from patent text by program, amines drawn as free bases though some values may be those of a salt).

SMILES | melting point [°C]
S=C(NCCC1CC(c2ccccc2)=NO1)N1CCOCC1 (centres undefined) | 128 to 130
COc1cc(OC)c2c(=O)[nH]c(-c3cc(C)c(OCCOCc4ccccc4)c(C)c3)nc2n1 | 204 to 206
CC(=O)OCC1CCc2c(C3=C(c4cn(C)c5ccccc45)C(=O)OC3=O)c3ccccc3n2C1 (centres undefined) | 190 to 193
COC(Cc1ccc2oc(Cc3nc(-c4ccccc4)oc3C)cc2c1)C(=O)O (centres undefined) | 159 to 160
CC1=NC(NC(=O)Nc2cccc(C)c2)C(=O)N(CC(=O)C(C)(C)C)c2c(C)cccc21 (centres undefined) | 180 to 181
O=c1c2ccc(Cl)cc2[nH]c2c(O)nn(-c3ccc(Cl)cc3Cl)c(=O)c12 | 360 to 361
O=c1cc(CCN2CCC(c3c[nH]c4ccccc34)CC2)c2cc([N+](=O)[O-])ccc2[nH]1 | 251 to 253
Cc1ccc2c3c(ccc2n1)OC[C@H](CNC[C@H]1CCc2c(c4cc(F)ccc4n2C)C1)O3 | 127 to 129
CC1(C(=O)c2c[nH]c3ncc(-c4cccs4)nc23)CCCCC1 | 224 to 225
Cc1oc(-c2ccccc2)nc1COc1ccc(Cn2cc(CCC(=O)O)c(-c3ccccc3)n2)nc1 | 175 to 176
COc1ccc(-n2cnc(-c3cccc(C(=O)O)c3)n2)cc1 | 230 to 232
COc1ccc(-c2cc(-c3ccc(-c4c(Cc5ccccc5)oc5ccccc45)cc3)ccc2OC(Cc2ccccc2)C(=O)O)cc1 (centres undefined) | 73 to 75
O=C(Nc1ccc(F)cc1F)c1nc(Cl)c(Cl)[nH]1 | 290
CC(C)(Oc1cccc(OCCCc2cn(-c3ccc(C(F)(F)F)cn3)nc2-c2ccccc2)c1)C(=O)O | 141 to 142
Cc1cn(CC(=O)c2ccc(-c3ccc(N4C[C@H](Cn5ccnn5)OC4=O)cc3F)cn2)c(C)n1 | 78
CCc1ccc2nc(Cl)nc(Nc3ccccc3C)c2c1 | 177 to 179
C[Si](C)(C)C#Cc1c[nH]c(=O)[nH]c1=O | 187 to 189
COCCc1nnc(NC(=O)C2c3ccccc3Oc3ccccc32)o1 | 105 to 106
O=c1[nH]nc2n1-c1ccc(N3CCCC3)nc1C(c1ccccc1Cl)=[N+]([O-])C2 | 200
CCOC(=O)c1ccc(NC(=O)C=Cc2ccc(Cl)cc2)cc1 | 203 to 204

SMILES | melting point [°C]
COC(=O)Cc1ccc(S(C)(=O)=O)c(Cl)c1 | 54 to 57
CN(C)CC(=O)Nc1ccc2[nH]c(=O)c3ccccc3c2c1 | > 300
COc1ccc(CN2CCNCC2)cc1 | 99 to 101
CN1C(=O)C(NC(=O)Nc2ccc(F)cc2)N=C(c2ccccc2)c2ccccc21 (centres undefined) | 269 to 270
Cc1cc(N=CN(C)C)c(C)cc1O | 212
C[C@H](NC(=O)OC(C)(C)C)c1nc2c(C(F)(F)F)cccc2c(=O)o1 | 174
ClC1c2ccccc2CSc2ccccc21 (centres undefined) | 79 to 82
CN(C)S(=O)(=O)c1cn(C)c2cc(C(F)(F)F)ccc2c1=O | 221 to 223
CCCCCCCCCC(=O)CCC(C)=O | 52 to 53
COc1ccccc1[C@@]1(O)[C@H](O)CC(c2ccccc2)(c2ccccc2)[C@@H]2CN(C(=O)Cc3c[nH]c4ccc(F)cc34)C[C@@H]21 (racemic) | 248
CCN(CC)CCNC(=O)c1cc(Cl)c(N)cc1OCCCCSC | 101 to 103
CC1(C(F)(F)F)CCCN1C(=O)c1c(F)cccc1F (centres undefined) | 119 to 120
CC(=O)CCc1ccc(C(=O)c2ccc(F)cc2)cc1 | 67 to 68
CCn1nc(C)c2c(Cl)c(CO)cnc21 | 119 to 121
CCCC(=O)Nc1cc(CNc2ccccc2C(=O)Nc2cc3ccccc3cn2)ccn1 | 173
CSc1ccc(C2=C(Br)C(=O)OC2)cc1 | 138 to 140
c1ccc(Cc2nc(COc3ccc(CCCn4ccnc4)cc3)co2)cc1 | 61 to 62
Cc1cc(C)nc(-c2ncc([N+](=O)[O-])n2C)n1 | 148 to 150
c1ccc2c(c1)CN(Cc1nc3ccccc3[nH]1)C2 | 172 to 174
